From article PMC4473678, “Swedish mutant APP-based BACE1 binding site peptide reduces APP β-cleavage and cerebral Aβ levels in Alzheimer’s mice” (Scientific Reports, 2015)

System: BACE1 in CHO/APPwt cells
Test: Co-localization with BACE1 in CHO/APPwt cells (immunocytochemistry)
Format: cell-based, Chinese hamster
Details: biotin-labeled peptide 20 μM, 30 min, anti-BACE1 and anti-biotin staining
Procedure: Following application of blocking buffer, these cells were stained with mouse anti-BACE1 and anti-biotin antibodies overnight at 4 °C for immunocytochemical analysis. In order to determine the inhibitory effects of TAT-APPsweBBP on BACE1-mediated APP β-cleavage and subsequent Aβ production, both CHO/APPwt and CHO/APPswe cells were plated in 24 well-plates (3×10^5/well) and treated with TAT-APPsweBBP at 0 to 20 μM for 24 h. The cultured media were collected for Aβ and sAPPα analysis by ELISA and WB. Cell lysates were also prepared for analysis of APP amyloidogenic processing by WB.

With “YGRKKRRQRRREISEVNLDAEFR [APPsweBBP conjugated with the membrane fusion fragment of HIV-1 Tat protein]” the “co-localization with BACE1” value (listed as TAT-APPsweBBP) was “much more strongly co-localized with BACE1 protein compared to APPsweBBP” and the “co-localization with BACE1” value (listed as TAT-APPsweBPP) was “strong association with BACE1 in both cytoplasmic membrane and intracellular compartments”.
